Results taken from patent US20070140959A1, “Method of preparing rhenium-tricarbonyl complex and its precursor” (priority 2005, published 2007).

What was measured:
[1] = assay type: in vitro ADME, human
Procedure: The ^188Re-tricarbonyl histidine complex prepared in Embodiment 2 was dissolved in physiological saline to prepare 37 MBq/ml of a test solution. Of this solution, 25 μl of the solution was added to 475 μl of human plasma (sigma) and then cultured at 37° C. for 24 hours. After the lapse of 0.5, 1, 2, 4 and 24 hours, the fraction of solution was subjected to TLC measurement. As a development solvent, a solvent mixture comprising methanol and conc. hydrochloric acid mixed at a 99:1 ratio was used.
When the fraction of solution was developed, the labeled complex was shown in the developed portion, and the complex reacted with the plasma protein was shown in the zero point, which were confirmed through HPLC. The HPLC measurement was conducted in the same manner as in Experimental Example 2. In addition, the plasma protein binding was measured using an ITLC isotope scanner.

[2] = Stability of 188Re(I)-tricarbonyl precursor over time (HPLC); assay type: physicochemical; conditions: for 3 hours, then began to decay
Procedure: The HPLC measurement was conducted in order to separate the ^188Re (I)-tricarbonyl precursor synthesized in Embodiment 1.
The HPLC measurement was carried out with a WATERS system provided with a radiometric detector using methanol (hereinafter, referred to as ‘solvent A’) and 0.05 M triethylammoniumphosphate buffer (TEAP, pH 2.25, hereinafter referred to as ‘solvent B’) using two pumps each equipped with a reverse phase Xterra™ RP18 5 μm column (4.6×250 mm, Waters, Ireland).
The solvent conditions for HPLC were as follows: in the range of 0 to 5 minutes, 100% solvent A began to flow and was then converted into 100% solvent B; in the range of 5 to 8 minutes, 100% solvent B began to flow and was then converted into 25% solvent A and 75% solvent B; in the range of 8 to 11 minutes, 25% solvent A and 75% solvent B were converted into 34% solvent A and 66% solvent B; in the range of 11 to 22 minutes, 34% solvent A and 66% solvent B were converted into 100% solvent A; and in the range of 22 to 24 minutes, 100% solvent A was converted into 100% solvent B. The flow rate of solvent was maintained at 1 ml/min for the entire time. In addition, in order to rapidly bring the column to a state of equilibrium, during the next 5 min, the solvent was supplied at 2 ml/min for 2 minnutes and then at the former solvent flow rate for 3 min. […]

| Substance | plasma stability (in words) [1] | fraction of precursor stable [2] [%] |
| --- | --- | --- |
| ^188Re (I)-tricarbonyl histidine complex [^188Re-tricarbonyl histidine complex] | high plasma stability | – |
| ^188Re-tricarbonyl precursor [^188Re (I)-tricarbonyl precursor] | – | ≥ 95 |
